These results are taken from patent US20110217300A1, “Quinazolinone Compounds and Methods of Use Thereof” (priority 2007, published 2011).

Where two headings read alike, the source gives them in different places.

The test system of one assay is NCI-H460. The experiment in a line: MTS cell viability assay. Type of assay: cell-based, human. Summed up: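 Cells in DMEM (4.5 g/L glucose) with 10% heat-inactivated FBS, 10 mM L-glutamine and 10 mM Hepes pH 7.5 at 37° C./5% CO2 were seeded at 100-5000 cells/well, then exposed to serially diluted compound (0.33% DMSO final) for 72 hours. Viability read by MTS/PMS reduction, absorbance 490 nm; GI50 reported.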
(Tetrazolium assays rely on reduction of a dye to a coloured formazan, in cell work by metabolically active cells.)

In another assay the test system is BDCM. In words: MTS cell viability assay. The format is cell-based. The note with it: Lymphoblast. On the procedure: (§1) Cell viability was determined by measuring the activity of dehydrogenase enzymes in metabolically active cells using a tetrazolium compound, MTS. The assay was performed as described in Promega Technical Bulletin No. 169 (CellTiter 96 Aqueous Non-Radioactive Cell Proliferation Assay). Two human cancer cell lines were assayed (see, Table 1). Cells were maintained at 37° C. and 5% CO2 in DMEM media (4.5 g/L glucose) supplemented with 10% heat-inactivated FBS, 10 mM L-glutamine, and 10 mM Hepes pH 7.5. Briefly, cells were seeded in 96-well plates as set forth in Table 1 and incubated for 16-24 hours. Candidate compounds were serially diluted in DMSO, further diluted in cell culture media, and then added to cells (final DMSO concentration of 0.33%). Cells were incubated in the presence of candidate compound for 72 hours. MTS stock solution (MTS 2 gm/L, PMS […] in PBS) was added to the cells (final concentration MTS […] and PMS 7.67 mg/L) and incubated for 4 hours. SDS was added to a final concentration of 1.4% and absorbance at 490 nm was measured within two hours using a plate reader. […] GI50 values were given in Table 2 for the compounds listed. The Compound Numbers in Table 2 correspond to the numbers listed parenthetically in the Example titles. Where multiple measurements were made by different technicians, both values are given.
(§2) Cell viability was determined for N-(3-amino-propyl)-3-chloro-N—[(R)-1-(7-chloro-4-oxo-3-phenylamino-3,4-dihydro-quinazolin-2-yl)-but-3-ynyl]-2-fluoro-benzamide (compound I of Table 2). The cell viability assay of Example 105 was used. GI50 was determined using a variety of cell lines. Cells were plated at 100-5000 cells per well. At least 2 replicates were performed. Where multiple measurements were made by different technicians, both values are given.

Another assay has as its system LoVo. The experiment in a line: MTS cell viability assay. The note with it: Homo sapiens, Colorectal Carcinoma. Type of assay: cell-based. On the procedure: as §1, §2
A further assay has as its system MCF-7. The experiment in a line: MTS cell viability assay. Type of assay: cell-based. The settings on record: breast. The protocol:
as §1, §2

Another assay concerns NCI-H1993. In words: MTS cell viability assay. The format is cell-based. The note with it: Lung adenocarcinoma. On the procedure:
as §1, §2

Another assay relates to NCI-H358. In words: MTS cell viability assay. The format is cell-based. The note with it: Homo sapiens, Non-small cell lung cancer, brancioalveolar carcinoma. The protocol: as §1, §2
In the next assay the test system is NCI-H520. The experiment in a line: MTS cell viability assay. The format is cell-based. The note with it: Homo sapiens, Squamous cell lung carcinoma. On the procedure: as §1, §2
A further assay deals with SK-LMS-1. In words: MTS cell viability assay. The note with it: Leiomyosarcoma. The format is cell-based. The protocol:
as §1, §2

In the next assay the test system is SNU475. In words: MTS cell viability assay. The settings on record: Homo sapiens, SNU-475, liver. Type of assay: cell-based. On the procedure:
as §1, §2

The subject of the next assay is MIA-PaCa2 xenograft. In words: Xenograft model. The format is in vivo, mice. The settings on record: MIA-PaCa2, Pancreas; procedures and dosages of Examples 106-108. On the procedure: Six-week old female athymic nude mice (NCR nu/nu; Charles River Laboratory, Wilmington, Mass.) were acclimated to the animal housing facility for at least 1 week before the study. Efficacy studies were performed in athymic mice bearing PACA2 tumor xenografts to determine the effect of compound on tumor growth. Tumor cells (1×10^7 PACA2 cells/animal) were inoculated subcutaneously on day 0. Tumor dimensions were measured by a digital microcaliper, and tumor volumes were calculated as length×width^2/2. […] Results are expressed as mean tumor volume±SE. To assess differences in tumor size between groups, a Mann-Whitney non-parametric t test was performed and significance was assessed for p values <0.05. Tumor size was evaluated periodically during treatment at the indicated days post-inoculation. […]
Six weeks old female athymic nude mice (NCR nu/nu) received from Charles River Laboratory, acclimated to the animal housing facility for one week before initiation of the study. […] Tumor dimensions were measured three times weekly by a digital microcaliper, and tumor volumes were calculated as length×width^2/2. […] Results are expressed as mean tumor volume±SE. To assess differences in tumor size between groups, student's t test was performed and significance was assessed for p values <0.05. Tumor size was evaluated periodically during treatment at the indicated days post-inoculation. […]

What is called GI50 is the concentration giving 50% growth inhibition. In the case of `C#CC[C@H](c1nc2cc(Cl)ccc2c(=O)n1Nc1ccccc1)N(CCCN)C(=O)c1cccc(Cl)c1F` [Compound 1, N-(3-Amino-propyl)-3-chloro-N—[(R)-1-(7-chloro-4-oxo-3-phenylamino-3,4-dihydro-quinazolin-2-yl)-but-3-ynyl]-2-fluoro-benzamide], the GI50 in the assay on NCI-H460 (Homo sapiens, NCI-H460, 72 h, read-out: MTS NCI H460 GI50, NCI-H460 non small cell lung, 72 hours) is 360 nM; in the assay with NCI-H460 (Homo sapiens, NCI-H460, read-out: Average GI50, NCI-H460, Large cell lung carcinoma (Table 3)), 1100 nM; in the assay with NCI-H460 (read-out: Average GI50, NCI-H460, Large cell lung carcinoma (Table 3), listed as I), 1050 nM; with BDCM it was 207 nM; in the assay with LoVo, 359 nM; in the assay with MCF-7 (Homo sapiens, MCF7, MCF-7) it was 5080 nM. The GI50 was found to be 4830 nM with MCF-7 (MCF-7, listed as I); 2420 nM with NCI-H1993 (Homo sapiens, NCI-H1993, NCI-H1993); 1660 nM in the assay on NCI-H1993 (NCI-H1993, listed as I); 190 nM in the assay on NCI-H358; 139 nM in the assay on NCI-H520; 2210 nM in the assay on SK-LMS-1. This compound returned a GI50 in the assay on SNU475 of 2350 nM. Besides, the “Xenograft Outcome (approximate percent growth inhibition)” value in the assay on MIA-PaCa2 xenograft was about 90%.
